This note sets out measurements from patent publication US20220332708A1 (Cytokinetics, Inc., priority 2021, published 2022).

The assay has as its system Bovine cardiac myofibrils. The assay can be described thus: Dose-dependent myofibril ATPase modulation (calcium-buffered, pyruvate kinase and lactate dehydrogenase-coupled ATPase assay at pCa25). Type of assay: biochemical. The note with it: concentration at which ATPase activity was 1.4-fold higher than the bottom of the dose curve, mean of a minimum of two independent tests. The procedure:
In Vitro Model of Dose-Dependent Myofibril ATPase Modulation
Dose responses were measured using a calcium-buffered, pyruvate kinase and lactate dehydrogenase-coupled ATPase assay containing the following reagents (concentrations expressed are final assay concentrations): Potassium PIPES (12 mM), MgCl2 (2 mM), ATP (1 mM), DTT (1 mM), BSA (0.1 mg/ml), NADH (0.5 mM), PEP (1.5 mM), pyruvate kinase (4 U/ml), lactate dehydrogenase (8 U/ml), and antifoam (90 ppm). The pH was adjusted to 6.80 at 22° C. by addition of potassium hydroxide. Calcium levels were controlled by a buffering system containing 0.6 mM EGTA and varying concentrations of calcium, to achieve a free calcium concentration of 1×10^−4 M to 1×10^−8 M.
Bovine cardiac myofibrils were obtained by homogenizing the appropriate tissue in the presence of detergent. Such treatment removes membranes and majority of soluble cytoplasmic proteins but leaves intact cardiac sarcomeric acto-myosin apparatus. Concentrations of myofibrils were adjusted to achieve the necessary rate of ATP hydrolysis (typically 0.25-1.0 mg/ml).
Chemical entity dose responses were measured at the calcium concentration corresponding to 25% of maximal ATPase activity (pCa25), so a preliminary experiment was performed to test the response of the ATPase activity to free calcium concentrations in the range of 1×10^−4 M to 1×10^−8 M. Subsequently, the assay mixture was adjusted to the pCa25. Assays were performed by first preparing a dilution series of test chemical entity, each with an assay mixture containing potassium Pipes, MgCl2, BSA, DTT, pyruvate kinase, lactate dehydrogenase, myofibrils, antifoam, EGTA, CaCl2), and water. The assay was started by adding an equal volume of solution containing potassium Pipes, MgCl2, BSA, DTT, ATP, NADH, PEP, antifoam, and water. ATP hydrolysis was monitored by absorbance at 340 nm. The resulting dose response curve was fit by the 4 parameter equation y=Bottom+((Top−Bottom)/(1+((EC50/X)^Hill))). […] AC1.4 values reported in the table below are mean values based on a minimum of two independent tests.

For the compound `Cc1cc(S(=O)(=O)N[C@@H]2COc3cc(F)c(Cl)cc3[C@@H]2O)cc(N2CC(O)C2)n1` [Compound 86, N-((3R,4S)-6-chloro-7-fluoro-4-hydroxychroman-3-yl)-2-(3-hydroxyazetidin-1-yl)-6-methylpyridine-4-sulfonamide], the AC1.4 is 13.53 µM. `Cc1[nH]c(S(=O)(=O)Nc2ccc(N3C[C@H](C)C[C@@H](C)C3)nc2)cc1C(=O)N1CC(F)(F)C1` [Compound 49, 4-(3,3-Difluoroazetidine-1-carbonyl)-N-(6-((3R,5R)-3,5-dimethylpiperidin-1-yl)pyridin-3-yl)-5-methyl-1H-pyrrole-2-sulfonamide]: the AC1.4 was determined as 2.9024 µM.

Turning to `Cc1nn([C@H]2C[C@H](NS(=O)(=O)c3cc(C(=O)N4CC(C#N)C4)c(C)[nH]3)C2)cc1C(F)(F)F` [Compound 56, 4-(3-Cyanoazetidine-1-carbonyl)-5-methyl-N-((trans)-3-(3-methyl-4-(trifluoromethyl)-1H-pyrazol-1-yl)cyclobutyl)-1H-pyrrole-2-sulfonamide], the AC1.4 amounted to 0.9674 µM. With `CNc1cc2c(cc1S(=O)(=O)N[C@]1(C)C[C@H](Nc3cccc(F)c3)C1)c(=O)[nH]c(=O)n2C` [Compound 23, N-((cis)-3-((3-fluorophenyl)amino)-1-methylcyclobutyl)-1-methyl-7-(methylamino)-2,4-dioxo-1,2,3,4-tetrahydroquinazoline-6-sulfonamide], the AC1.4 came out at 0.6045 µM.

For `CNc1cc2c(cc1S(=O)(=O)N[C@H]1C[C@H](Nc3ccccc3)C1)c(=O)[nH]c(=O)n2C` [Compound 100, 1-Methyl-7-(methylamino)-2,4-dioxo-N-((1r,3r)-3-(phenylamino)cyclobutyl)-1,2,3,4-tetrahydroquinazoline-6-sulfonamide], the AC1.4 came to 5.571 µM. Regarding `Cc1[nH]c(S(=O)(=O)N[C@@H]2CCc3c([nH]c4ccccc34)C2)cc1C(=O)N1CC(C)(O)C1` [Compound 43], the AC1.4 was found to be 0.1254 µM. Next, `COCCNC(=O)c1cc(S(=O)(=O)NC2CCc3c([nH]c4ccccc34)C2)[nH]c1C` (stereo not shown) [Compound 37, N-(2-methoxyethyl)-2-methyl-5-(N-(2,3,4,9-tetrahydro-1H-carbazol-2-yl)sulfamoyl)-1H-pyrrole-3-carboxamide]: 2.9421 µM; `Cc1[nH]c(S(=O)(=O)N[C@H]2COc3cc(Cl)ccc3C2)cc1C(=O)N1CC(C)(C#N)C1` (stereo in doubt) [Compound 16, N-(7-chlorochroman-3-yl)-4-(3-cyano-3-methylazetidine-1-carbonyl)-5-methyl-1H-pyrrole-2-sulfonamide]: 8.4932 µM; `CNc1cc2c(cc1S(=O)(=O)N[C@H]1CC[C@@H](Nc3ccccc3)C1)c(=O)[nH]c(=O)n2C` (relative stereo) [Compound 19, 1-Methyl-7-(methylamino)-2,4-dioxo-N-((cis)-3-(phenylamino)cyclopentyl)-1,2,3,4-tetrahydroquinazoline-6-sulfonamide]: 0.6379 µM. Next, `Cc1[nH]c(S(=O)(=O)N[C@@H]2Cc3cc(F)c(Cl)cc3C2)cc1C(=O)N1CC2(COC2)C1` [Compound 96, (R)-N-(5-chloro-6-fluoro-2,3-dihydro-1H-inden-2-yl)-5-methyl-4-(2-oxa-6-azaspiro[3.3]heptane-6-carbonyl)-1H-pyrrole-2-sulfonamide]: 1.218 µM. As to `Cc1[nH]c(S(=O)(=O)N[C@H]2C[C@H](c3cc(C(F)(F)F)ccn3)C2)cc1C(=O)N1CC(C#N)C1` [Compound 57, 4-(3-Cyanoazetidine-1-carbonyl)-5-methyl-N-((trans)-3-(4-(trifluoromethyl)pyridin-2-yl)cyclobutyl)-1H-pyrrole-2-sulfonamide], the AC1.4 worked out at 0.8572 µM. Consider `CNC(=O)c1cc(S(=O)(=O)NC2CCc3c([nH]c4ccccc34)C2)[nH]c1C` (stereo not shown) [Compound 35, N,2-dimethyl-5-(N-(2,3,4,9-tetrahydro-1H-carbazol-2-yl)sulfamoyl)-1H-pyrrole-3-carboxamide], for which the AC1.4 came to 6.2537 µM. Next, `CNc1cc2nc(C)[nH]c(=O)c2cc1S(=O)(=O)N[C@H]1C[C@@H](Nc2cccc(F)c2)C1` [Compound 15, N-((cis)-3-((3-fluorophenyl)amino)cyclobutyl)-2-methyl-7-(methylamino)-4-oxo-3,4-dihydroquinazoline-6-sulfonamide]: 1.019 µM; `CNc1cc2c(cc1S(=O)(=O)NC1CCN(c3ccccc3)CC1)c(=O)[nH]c(=O)n2C` [Compound 10, 1-Methyl-7-(methylamino)-2,4-dioxo-N-(1-phenylpiperidin-4-yl)-1,2,3,4-tetrahydroquinazoline-6-sulfonamide]: 2.8354 µM; `Cc1cnc(-c2cc(S(=O)(=O)N[C@H]3C[C@H](n4cc(C(F)(F)F)c(C)n4)C3)[nH]c2C)o1` [Compound 66, 5-Methyl-N-((trans)-3-(3-methyl-4-(trifluoromethyl)-1H-pyrazol-1-yl)cyclobutyl)-4-(5-methyloxazol-2-yl)-1H-pyrrole-2-sulfonamide]: 1.1207 µM.

In the case of `Cc1[nH]c(S(=O)(=O)N[C@@H]2COc3ccc(Cl)cc3C2)cc1C(=O)N1CC(C)(C#N)C1` [Compound 71, (S)-N-(6-chlorochroman-3-yl)-4-(3-cyano-3-methylazetidine-1-carbonyl)-5-methyl-1H-pyrrole-2-sulfonamide], the AC1.4 is 0.3054 µM. On to `Cc1[nH]c(S(=O)(=O)N[C@]2(Cc3ccc(Cl)cc3)CCOC2)cc1C(=O)NCC(F)F` (single isomer, unassigned) [Compound 65], for which the AC1.4 amounted to 3.2638 µM. Next, `Cc1[nH]c(S(=O)(=O)NC2CCc3c([nH]c4ccccc34)C2)cc1C(=O)N(C)C` (stereo not shown) [Compound 36, N,N,2-trimethyl-5-(N-(2,3,4,9-tetrahydro-1H-carbazol-2-yl)sulfamoyl)-1H-pyrrole-3-carboxamide]: 6.922 µM; `Cc1[nH]c(S(=O)(=O)N[C@@H]2COc3cc(F)c(F)cc3C2)cc1C(=O)N1CC(C)(C#N)C1` [Compound 70, (S)-4-(3-cyano-3-methylazetidine-1-carbonyl)-N-(6,7-difluorochroman-3-yl)-5-methyl-1H-pyrrole-2-sulfonamide]: 0.3162 µM.

For the compound `CNc1cc2c(cc1S(=O)(=O)N[C@H]1CC[C@H](c3ccccc3)CC1)c(=O)[nH]c(=O)n2C` [Compound 12], the AC1.4 was determined as 1.6528 µM. With `Cc1[nH]c(S(=O)(=O)N[C@]2(Cc3ccc(Cl)cc3)CCOC2)cc1C(=O)N1CC(C)(C#N)C1` (single isomer, unassigned) [Compound 63], the AC1.4 was determined as 0.081 µM. Next, `Cc1[nH]c(S(=O)(=O)N[C@@H]2CCc3c([nH]c4ccccc34)C2)cc1C(=O)N1CC(F)(F)C1` [Compound 42, (R)-4-(3,3-difluoroazetidine-1-carbonyl)-5-methyl-N-(2,3,4,9-tetrahydro-1H-carbazol-2-yl)-1H-pyrrole-2-sulfonamide]: 0.06395 µM; `CNc1cc2nc(C)[nH]c(=O)c2cc1S(=O)(=O)N[C@H]1CCc2c([nH]c3ccccc23)C1` [Compound 32, (S)-2-Methyl-7-(methylamino)-4-oxo-N-(2,3,4,9-tetrahydro-1H-carbazol-2-yl)-3,4-dihydroquinazoline-6-sulfonamide]: 5.8178 µM; `Cc1nc2cc(OCCN3CCOCC3)c(S(=O)(=O)Nc3ccc(N4C[C@H](C)C[C@@H](C)C4)nc3)cc2c(=O)[nH]1` [Compound 6, N-(6-((3R,5R)-3,5-dimethylpiperidin-1-yl)pyridin-3-yl)-2-methyl-7-(2-morpholinoethoxy)-4-oxo-3,4-dihydroquinazoline-6-sulfonamide]: 0.7385 µM. Consider `CNc1cc2c(cc1S(=O)(=O)N[C@H]1C[C@@H](Nc3cccc(F)c3)C1)c(=O)[nH]c(=O)n2C` [Compound 14, N-((cis)-3-((3-fluorophenyl)amino)cyclobutyl)-1-methyl-7-(methylamino)-2,4-dioxo-1,2,3,4-tetrahydroquinazoline-6-sulfonamide], for which the AC1.4 is 0.2006 µM. Next, `CNc1cc2c(cc1S(=O)(=O)NCCc1cc3ccccc3[nH]1)c(=O)[nH]c(=O)n2C` [Compound 21]: 4.8236 µM; `Cc1[nH]c(S(=O)(=O)N[C@@H]2Cc3cc(F)c(Cl)cc3C2)cc1C(=O)N1CC(OC(F)(F)F)C1` [Compound 94, (R)-N-(5-chloro-6-fluoro-2,3-dihydro-1H-inden-2-yl)-5-methyl-4-(3-(trifluoromethoxy)azetidine-1-carbonyl)-1H-pyrrole-2-sulfonamide]: 0.6847 µM. Next, `Cc1[nH]c(S(=O)(=O)N[C@H]2C[C@@H](c3cccc(C(F)(F)F)c3)C2)cc1C(=O)N1CC(C)(C#N)C1` [Compound 54, 4-(3-Cyano-3-methylazetidine-1-carbonyl)-5-methyl-N-((cis)-3-(3-(trifluoromethyl)phenyl)cyclobutyl)-1H-pyrrole-2-sulfonamide]: 2.9934 µM.
